This assay deals with T1, GAL4 DBD (1-147)-CfEcR(DEF)/VP16AD-βRXREF-LmUSPEF (Choristoneura fumiferana, UniProt O77240).
T1 construct: The wild-type D, E, and F domains from spruce budworm Choristoneura fumiferana EcR (“CfEcR-DEF”)
The experiment in a line: 27-63 Assay (luciferase reporter gene assay in stably transfected CHO cell clone). It counts as cell-based. The note with it: for relative Max F1 27-63 Assay: maximum fold induction at any concentration relative to maximum fold induction of GS-E ligand. On the procedure: Stably transfected cells were selected by Zeocin resistance. Individually isolated CHO cell clones were transiently transfected with a GAL4 RE-luciferase reporter (pFR Luc). 27-63 clone was selected using Hygromycin.
Cells were trypsinized and diluted to a concentration of 2.5×10^4 cells mL. 100 μL of cell suspension was placed in each well of a 96 well plate and incubated at 37° C. under 5% CO2 for 24 h. Ligand stock solutions were prepared in DMSO and diluted 300 fold for all treatments.
Luciferase reporter gene expression was measured 48 h after cell treatment using Bright-Glo™ Luciferase Assay System from Promega (E2650). Luminescence was detected at room temperature using a Dynex MLX microtiter plate luminometer. EC50s were calculated from dose response data using a three-parameter logistic model.
Each assay was conducted in two separate wells, and the two values were averaged.
(In general: Reporter assays use an easily measured gene product as a stand-in for the process of interest.)

[1] abbreviates: CHO 27-63 clone, luciferase, 48 h.

pEC50: −log10 of the molar value. Where only a bound is given, the exact number is not on record here.

One may read the pEC50 as −log10 of the EC50, conventionally taken in molar units. A low value points to a high EC50. With `CCc1c(OC)cccc1C(=O)NN(C(=O)c1cc(C)cc(C)c1)C(C)(C)C` [GS ™-E ligand, 3,5-Dimethyl-benzoic acid N-tert-butyl-N′-(2-ethyl-3-methoxy-benzoyl)-hydrazide, reference compound], the pEC50 is 6.54.

With `Cc1cc(C)cc(C(=O)N(NC(=O)c2ccc3c(c2C)OC(CO)CO3)C(C)(C)C)c1` (stereo not shown) [RG-115789, 3,5-dimethylbenzoic acid N-tert-butyl-N′-(3-hydroxymethyl-5-methyl-2,3-dihydrobenzo[1,4]dioxine-6-carbonyl)-hydrazide], the pEC50 was 5.73. For the same compound, under setting [1], the “relative Max F1 27-63 Assay” value amounted to 0.81. Turning to `Cc1cc(C)cc(C(=O)N(NC(=O)c2ccc3c(c2C)O[C@@H](CO[Si](C)(C)C(C)(C)C)CO3)C(C)(C)C)c1` [RG-115790, 3,5-dimethylbenzoic acid N-tert-butyl-N′-[3-(tert-butyldimethylsilytoxymethyl)-5-methyl-2,3-dihydrobenzo[1,4]dioxine-6-carbonyl]-hydrazide], the pEC50 was less than 4.48. For the same compound, under setting [1], the “relative Max F1 27-63 Assay” value worked out at 0.0. In the case of `Cc1cc(C)cc(C(=O)N(NC(=O)c2ccc3c(c2C)OC(C(=O)O)CO3)C(C)(C)C)c1` (stereo not shown) [RG-115805, 7-[N′-tert-butyl-N′-(3,5-dimethyl-benzoyl)-hydrazinocarbonyl]-8-methyl-2,3-dihydro-benzo[1,4]dioxine-2-carboxylic acid], the pEC50 was less than 4.48. The “relative Max F1 27-63 Assay” value under setting [1] stood at 0.01. In the case of `COC(=O)[C@H]1COc2ccc(C(=O)NN(C(=O)c3cc(C)cc(C)c3)C(C)(C)C)c(C)c2O1` [RG-115806], the pEC50 is approximately 4.48. The “relative Max F1 27-63 Assay” value under setting [1] amounted to 0.25.

With `Cc1cc(C)cc(C(=O)N(NC(=O)c2ccc3c(c2C)O[C@@H](C=NNC(N)=O)CO3)C(C)(C)C)c1` [RG-115807, 3,5-dimethyl-benzoic acid N-tert-butyl-N′-(3-formylsemicarbazide-5-methyl-2,3-dihydro-benzo[1,4]dioxine-6-carbonyl)-hydrazide], the pEC50 is 5.48. The “relative Max F1 27-63 Assay” value under setting [1] stood at 0.80.

Compound `Cc1cc(C)cc(C(=O)N(NC(=O)c2ccc3c(c2C)OC(COC(=O)Nc2ccccc2)CO3)C(C)(C)C)c1` (stereo not shown) [RG-115808, phenyl-carbamic acid 7-[N′-tert-butyl-N′-(3,5-dimethyl-benzoyl)-hydrazinocarbonyl]-8-methyl-2,3-dihydro-benzo[1,4]dioxin-2-ylmethyl ester] had a pEC50 of 5.95. For the same compound, under setting [1], the “relative Max F1 27-63 Assay” value is on record as 2.37.

Regarding `Cc1cc(C)cc(C(=O)N(NC(=O)c2ccc3c(c2C)OC(CCN)CO3)C(C)(C)C)c1` (stereo not shown) [RG-115809, 3,5-dimethyl-benzoic acid N′-[3-(2-amino-ethyl)-5-methyl-2,3-dihydro-benzo[1,4]dioxine-6-carbonyl]-N-tert-butyl-hydrazide], the pEC50 was 5.49. Besides, under setting [1], the “relative Max F1 27-63 Assay” value is listed as 1.09. Turning to `Cc1cc(C)cc(C(=O)N(NC(=O)c2ccc3c(c2C)OC(C(=O)Oc2c(F)c(F)c(F)c(F)c2F)CO3)C(C)(C)C)c1` (stereo not shown) [RG-115810, 7-[N′-tert-butyl-N′-(3,5-dimethyl-benzoyl)-hydrazinocarbonyl]-8-methyl-2,3-dihydro-benzo[1,4]dioxine-2-carboxylic acid pentafluorophenyl ester], the pEC50 was approximately 4.70. Also, under setting [1], the “relative Max F1 27-63 Assay” value amounted to 1.23.

In turn, `CNC(=O)C1COc2ccc(C(=O)NN(C(=O)c3cc(C)cc(C)c3)C(C)(C)C)c(C)c2O1` (stereo not shown) [RG-115811, 7-[N′-tert-butyl-N′-(3,5-dimethyl-benzoyl)-hydrazinocarbonyl]-8-methyl-2,3-dihydro-benzo[1,4]dioxine-2-carboxylic acid methylamide] had a pEC50 of less than 4.48. For the same compound, the “relative Max F1 27-63 Assay” value under setting [1] stood at 0.24. The matching figures for `Cc1cc(C)cc(C(=O)N(NC(=O)c2ccc3c(c2C)OC(C=O)CO3)C(C)(C)C)c1` (stereo not shown) [RG-115812, 3,5-dimethyl-benzoic acid N-tert-butyl-N′-(3-formyl-5-methyl-2,3-dihydro-benzo[1,4]dioxine-6-carbonyl)-hydrazide]: 5.57 and 0.86.

Take `Cc1ccc(S(=O)(=O)OCC2COc3ccc(C(=O)NN(C(=O)c4cc(C)cc(C)c4)C(C)(C)C)c(C)c3O2)cc1` (stereo not shown) [RG-115813, toluene-4-sulfonic acid 7-[N′-tert-butyl-N′-(3,5-dimethyl-benzoyl)-hydrazinocarbonyl]-8-methyl-2,3-dihydro-benzo[1,4]dioxin-2-ylmethyl ester]: the pEC50 was less than 4.48. Also, the “relative Max F1 27-63 Assay” value under setting [1] turned out to be 0.01. On the same counts, the results for `Cc1cc(C)cc(C(=O)N(NC(=O)c2ccc3c(c2C)OC(C=NO)CO3)C(C)(C)C)c1` (stereo not shown) [RG-115814, 3,5-dimethyl-benzoic acid N-tert-butyl-N′-[3-(hydroxyimino-methyl)-5-methyl-2,3-dihydro-benzo[1,4]dioxine-6-carbonyl]-hydrazide] are 6.49 and 1.0. `Cc1cc(C)cc(C(=O)N(NC(=O)c2ccc3c(c2C)OC(CF)CO3)C(C)(C)C)c1` (stereo not shown) [RG-115815, 3,5-dimethyl-benzoic acid N-tert-butyl-N′-(3-fluoromethyl-5-methyl-2,3-dihydro-benzo[1,4]dioxine-6-carbonyl)-hydrazide] showed a pEC50 of 6.52. Further, the “relative Max F1 27-63 Assay” value under setting [1] was found to be 0.738. In turn, `Cc1cc(C)cc(C(=O)N(NC(=O)c2ccc3c(c2C)OC(CC#N)CO3)C(C)(C)C)c1` (stereo not shown) [RG-115816, 3,5-Dimethyl-benzoic acid N-tert-butyl-N′-(3-cyanomethyl-5-methyl-2,3-dihydro-benzo[1,4]dioxine-6-carbonyl)-hydrazide] showed a negative-log EC50 (pEC50) of 5.37. For the same compound, under setting [1], the “relative Max F1 27-63 Assay” value is 0.85. Turning to `CSCC1COc2ccc(C(=O)NN(C(=O)c3cc(C)cc(C)c3)C(C)(C)C)c(C)c2O1` (stereo not shown) [RG-115817, 3,5-dimethyl-benzoic acid N-tert-butyl-N′-(5-methyl-3-methylsulfanylmethyl-2,3-dihydro-benzo[1,4]dioxine-6-carbonyl)-hydrazide], the pEC50 was 5.54. The “relative Max F1 27-63 Assay” value under setting [1] was 0.95.

Turning to `Cc1cc(C)cc(C(=O)N(NC(=O)c2ccc3c(c2C)O[C@@H](CS(C)(=O)=O)CO3)C(C)(C)C)c1` [RG-115818, 3,5-Dimethyl-benzoic acid N-tert-butyl-N′-(3-methanesulfonyl-methyl-5-methyl-2,3-dihydro-benzo[1,4]dioxine-6-carbonyl)-hydrazide], the pEC50 is 5.28. With `CCCCCCC(N(NC(=O)c1ccc(CC)cc1)C(=O)c1cc(C)cc(C)c1)C(C)(C)C` (stereo not shown) [RG-115843], the pEC50 is 6.07. Also, the “relative Max F1 27-63 Assay” value under setting [1] worked out at 0.73. Regarding `CCCCCCC(N(NC(=O)c1ccc(CC)cc1)C(=O)c1cc(OC)c(C)c(OC)c1)C(C)(C)C` (stereo not shown) [RG-115844], the pEC50 is 5.91. Also, the “relative Max F1 27-63 Assay” value under setting [1] worked out at 0.352. Regarding `CCCCCCC(N(NC(=O)c1ccc(CC)cc1)C(=O)c1cccnc1OC)C(C)(C)C` (stereo not shown) [RG-115845, 2-methoxy-nicotinic acid N-(1-tert-butyl-heptyl)-N′-(4-ethyl-benzoyl)-hydrazide], the pEC50 is 5.35. The “relative Max F1 27-63 Assay” value under setting [1] is listed as 0.52. With `CCCCCCC(N(NC(=O)c1cccc(OC)c1C)C(=O)c1cc(C)cc(C)c1)C(C)(C)C` (stereo not shown) [RG-115853, 3,5-dimethyl-benzoic acid N-(1-tert-butyl-heptyl)-N′-(3-methoxy-2-methyl-benzoyl)-hydrazide], the pEC50 was 7.00. Further, the “relative Max F1 27-63 Assay” value under setting [1] worked out at 0.898. Compound `CCCCCCC(N(NC(=O)c1cccc(OC)c1C)C(=O)c1cc(OC)c(C)c(OC)c1)C(C)(C)C` (stereo not shown) [RG-115854] had a pEC50 of 6.70. Moreover, the “relative Max F1 27-63 Assay” value under setting [1] is given as 0.917. Consider `COc1cccc(C(=O)NN(C(=O)c2cc(C)cc(C)c2)C(/C=C(\C)C(C)(C)C)C(C)(C)C)c1C` (stereo not shown) [RG-115855, 3-methoxy-2-methyl-benzoic acid N′-(1-tert-butyl-3,4,4-trimethyl-pent-2-enyl)-N′-(3,5-dimethyl-benzoyl)-hydrazide], for which the pEC50 was 7.57. Further, under setting [1], the “relative Max F1 27-63 Assay” value was determined as 1.16. As to `COc1cccc(C(=O)NN(C(=O)c2cc(C)cc(C)c2)/C(=C/C#N)C(C)(C)C)c1C` [RG-115860, 3-methoxy-2-methyl-benzoic acid N′-(1-tert-butyl-2-cyano-vinyl)-N′-(3,5-dimethylbenzoyl) hydrazide], the “Avg F1 27-63 Assay” value (at 33 μM, CHO 27-63 clone, luciferase, 48 h) is “Avg F1 = 2307 at 33 μM”.

Compound `CCCCC(N(NC(=O)c1cccc(OC)c1C)C(=O)c1cc(C)cc(C)c1)C(C)(C)CCC` (stereo not shown) [RG-115877, 3,5-Dimethyl-benzoic acid N-(1-butyl-2,2-dimethyl-pentyl)-N′-(3-methoxy-2-methyl-benzoyl)-hydrazide] gave a pEC50 of 5.65. In addition, under setting [1], the “relative Max F1 27-63 Assay” value was 1.48. On the same counts, the results for `C=CCC(C)(C)C(CCCC)N(NC(=O)c1cccc(OC)c1C)C(=O)c1cc(C)cc(C)c1` (stereo not shown) [RG-115878, 3,5-dimethyl-benzoic acid N-(1-butyl-2,2-dimethyl-pent-4-enyl)-N′-(3-methoxy-2-methyl-benzoyl)-hydrazide] are 7.00 and 1.05.

(Values after patent US7851220B2, “Diacylhydrazine ligands for modulating the expression of exogenous genes in mammalian systems via an ecdysone receptor complex” (priority 2003, dated 2010).)
